For eight molecules, TGI and GI50 results are on record in PubChem BioAssay (NCI).

Some test systems named below: HCT-116 colon; M19-MEL melanoma; UO-31 renal; SK-MEL-2 melanoma; IGROV1 ovarian; SF-268 CNS; SR leukemia; SK-MEL-5 melanoma; MDA-MB-435.
Common to all, as to assay: NCI-60 cell line screen, 48 h

Structures are written as SMILES. “And” between values parts separate entries of the source, which are not always exact repeats. Identical values can stand only once.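 Dose response: 5 concentrations. Exposure: 48 h. Format: 96-well plates. Endpoint: linear interpolation; highest concentration if not reached. At the GI50, growth is halved. TGI: total growth inhibition.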 Where only a bound is given, the exact number is not on record here.

Turning to `COc1cc(CC(=O)O)c([N+](=O)[O-])cc1OC`, the TGI with HCT-116 colon, with M19-MEL melanoma, with UO-31 renal, in the assay on SK-MEL-2 melanoma, in the assay with IGROV1 ovarian and with SF-268 CNS was more than 100 µM each time.
With `CC(=O)ON=C1C=CC(=C(C#N)c2ccccc2)C=C1`, the GI50 with HCT-116 colon was 0.283 µM; in the assay on SR leukemia, 0.619 µM; with UO-31 renal, 0.576 µM; in the assay with SK-MEL-5 melanoma it was 2.36 µM; with SK-MEL-2 melanoma it was 2.19 µM; in the assay with IGROV1 ovarian, 1 µM. Besides, the figures for the GI50 in the assay on MDA-MB-435 and with SF-268 CNS were 0.283 µM and 1.21 µM, respectively. The TGI with HCT-116 colon came to 11.5 µM; with SR leukemia it was 16.5 µM; in the assay on UO-31 renal, 15.6 µM; with SK-MEL-5 melanoma, 17.7 µM; in the assay with SK-MEL-2 melanoma, 15.6 µM; with IGROV1 ovarian it was 6.9 µM. The TGI came to 2.28 µM with MDA-MB-435 and 6.33 µM with SF-268 CNS.
On to `CC[C@@]1(O)C(=O)OCc2c1cc1n(c2=O)Cc2c-1nc1cc(F)c(C)c3c1c2[C@@H](NC(=O)CO)CC3`, for which the GI50 was less than 0.01 µM in the assay with HCT-116 colon; less than 0.01 µM in the assay on SR leukemia; 0.019 µM in the assay with UO-31 renal; less than 0.0109 µM in the assay on SK-MEL-5 melanoma; 0.318 µM with SK-MEL-2 melanoma; 0.0449 µM in the assay with IGROV1 ovarian. Also, the values for the GI50 with MDA-MB-435 and with SF-268 CNS were 0.0612 µM and less than 0.01 µM, respectively. In addition, the TGI is more than 100 µM in the assay on HCT-116 colon; more than 100 µM in the assay with SR leukemia; 0.485 µM with UO-31 renal; 0.119 µM in the assay on SK-MEL-5 melanoma; 2.63 µM in the assay with SK-MEL-2 melanoma; 1.92 µM with IGROV1 ovarian. In addition, the TGI in the assay with MDA-MB-435 was found to be 3.05 µM; with SF-268 CNS it was 1.95 µM.
As for `C[C@]12CC[C@H]3[C@@H](CC[C@]4(O)C[C@@H](O[C@@H]5O[C@H](CO)[C@@H](O[C@@H]6OC[C@@H](O)[C@H](O)[C@H]6O)[C@H](O)[C@H]5O)CC[C@]34C=O)[C@@]1(O)CC[C@@H]2C1=CC(=O)OC1`, the GI50 in the assay with HCT-116 colon is 1.47 µM; in the assay with SR leukemia, 1.06 µM; in the assay with UO-31 renal it was 1.54 µM; in the assay with SK-MEL-5 melanoma, 1.22 µM; in the assay with SK-MEL-2 melanoma, 1.49 µM; with IGROV1 ovarian it was 1.84 µM. Further, the GI50 in the assay on MDA-MB-435 was 1.71 µM; in the assay with SF-268 CNS, 0.739 µM. For the same molecule, the TGI in the assay on HCT-116 colon came out at 5.77 µM; in the assay on SR leukemia, 3.27 µM; in the assay with UO-31 renal, 5.01 µM; with SK-MEL-5 melanoma it was 2.88 µM; in the assay on SK-MEL-2 melanoma, 4.44 µM; in the assay with IGROV1 ovarian, 17.6 µM. Further, the TGI in the assay on MDA-MB-435 amounted to 6.17 µM; with SF-268 CNS, 2.42 µM.
Regarding `Cc1cnc(-c2ccc(-c3ccc(NC(=O)Nc4c(F)cc(F)cc4F)cc3F)c3c2C(=O)NC3)[nH]1`, the GI50 in the assay on HCT-116 colon was 0.307 µM and 1.03 µM; in the assay with SR leukemia, 0.0294 µM and < 0.01 µM; in the assay on UO-31 renal, 0.594 µM and 1.46 µM; in the assay on SK-MEL-5 melanoma, 0.852 µM and 2.09 µM; with SK-MEL-2 melanoma, 1.57 µM and 3.75 µM; with IGROV1 ovarian, 0.824 µM and 1.31 µM. The GI50 is 0.483 µM with MDA-MB-435; 1.17 µM and 3.25 µM in the assay with SF-268 CNS. Also, the TGI with HCT-116 colon is 2.8 µM and 2.71 µM; in the assay with UO-31 renal, more than 100 µM; with SK-MEL-5 melanoma, 9.16 µM and 14.1 µM; with SK-MEL-2 melanoma it was 14.3 µM and 21.6 µM; in the assay with IGROV1 ovarian, 6.63 µM and 18.8 µM; in the assay on MDA-MB-435 it was 4.29 µM. Moreover, in the assay on SF-268 CNS, the TGI was 20.6 µM and 22.9 µM.
Turning to `COC(=O)c1c2c(c(C)[n+]([O-])c1C)C(=O)C(NCc1ccc(O)cc1)=CC2=O`, the GI50 in the assay on HCT-116 colon is 0.333 µM; with SR leukemia, 1.83 µM; in the assay with UO-31 renal, 1.53 µM; with SK-MEL-5 melanoma, 1.27 µM; in the assay with SK-MEL-2 melanoma, 1.79 µM; with IGROV1 ovarian it was 1.59 µM. For the same molecule, the GI50 in the assay with MDA-MB-435 is 1.68 µM; in the assay with SF-268 CNS, 1.64 µM. The TGI in the assay on HCT-116 colon amounted to 1.24 µM; in the assay with SR leukemia it was 6.51 µM; in the assay on UO-31 renal, 3.06 µM; in the assay with SK-MEL-5 melanoma, 2.59 µM; with SK-MEL-2 melanoma, 3.72 µM; in the assay with IGROV1 ovarian, 3.78 µM. For the same molecule, the values for the TGI in the assay on MDA-MB-435 and in the assay with SF-268 CNS were 3.19 µM and 3.53 µM, respectively.
As to `Nc1cc(N)c2nc(NCCc3ccc(Cl)c(Cl)c3)cnc2c1`, the GI50 with HCT-116 colon was 3.7 µM; with SR leukemia, 3.9 µM; in the assay with UO-31 renal, 6.3 µM; with SK-MEL-5 melanoma, 13.8 µM; in the assay with SK-MEL-2 melanoma, 8.23 µM; with IGROV1 ovarian, 14.5 µM. The GI50 in the assay with MDA-MB-435 was 3.96 µM; in the assay on SF-268 CNS it was 4.7 µM. Besides, the TGI in the assay on HCT-116 colon is 15.1 µM; in the assay with SR leukemia it was 20.9 µM; with UO-31 renal it was 20.3 µM; in the assay on SK-MEL-5 melanoma, 27.1 µM; in the assay on SK-MEL-2 melanoma, 21.4 µM; with IGROV1 ovarian, 28.7 µM. Also, the TGI in the assay with MDA-MB-435 turned out to be 13.6 µM; in the assay with SF-268 CNS, 17.6 µM.
Regarding `COC1C(=O)CCC2(CO2)C1(O)C1(C)OC1CC=C(C)C` (centres undefined), the TGI in the assay with HCT-116 colon is more than 100 µM; in the assay on SR leukemia, more than 100 µM; with UO-31 renal, more than 100 µM; in the assay on SK-MEL-5 melanoma it was 83.9 µM; in the assay on SK-MEL-2 melanoma, more than 100 µM; in the assay with IGROV1 ovarian it was more than 100 µM. The TGI in the assay on MDA-MB-435 and in the assay with SF-268 CNS was more than 100 µM each time.
